Source: article PMC5653977 (EMBO Molecular Medicine, 2017)
“And” between values parts separate entries of the source, which are not always exact repeats. Identical values can stand only once. Counter-ions that a name gives are not always drawn. Where a SMILES comes first, the peptide text is derived from it. [ ]: non-standard residue; d: D form. pGlu = O=C1CC[C@@H](C(=O)O)N1; Thz = O=C(O)[C@@H]1CSCN1

test system: NRG1-ERBB4 signaling; assay: Nrg1-ERBB4-PIK3R1 split TEV co-culture compound screen of the NIH Clinical Collection; format: cell-based, human; settings: not given

| SMILES | Z-SCORE |
| --- | --- |
| C[C@]12CC[C@H]3[C@@H](CCC4=CC(=O)CC[C@@]43C)[C@@H]1CC[C@@H]2O [Testosterone, reference compound] | 0.79 and 0.91 |
| Cl.Nc1c2c(nc3ccccc13)CCCC2 | 1.29 |
| CN1C(=O)CN=C(c2ccccc2)c2cc(Cl)ccc21 [Diazepam] | -1.79 |
| CNC(=N)NCCC[C@H](N)C(=O)O | -0.42 |

same assay, conditions: NIH Clinical Collection NCC-003 raw data; compounds ranked by Z-score; 'flagged' given instead of a Z-score

| SMILES | Z-SCORE |
| --- | --- |
| COC(=O)C1=C(C)NC(C)=C(C(=O)OC(C)C)C1c1cccc2nonc12 (stereo not drawn) [ISRADIPINE] | -1.94 |
| CCCCCCCCCOc1ccc2[nH]cc(CCN)c2c1 [5-Nonyloxytryptamine] | flagged |
| CCOC(=O)[C@H](CCc1ccccc1)N[C@@H](C)C(=O)N1[C@H](C(=O)O)C[C@@H]2CCC[C@@H]21 [reference compound] | -1.41 |
| CC(C)/N=c1\cc2n(-c3ccc(Cl)cc3)c3ccccc3nc-2cc1Nc1ccc(Cl)cc1 [CLOFAZIMINE] | flagged |
| O=C1CC[C@@H](C(=O)N2CSC[C@H]2C(=O)O)N1 [PIDOTIMOD] ([pGlu]-[Thz]-OH) | -1.2 |
| COC(=O)C[C@](O)(CCCC(C)(C)O)C(=O)O[C@@H]1C(OC)=C[C@]23CCCN2CCc2cc4c(cc2[C@H]13)OCO4 [HOMOHARRINGTONINE] | flagged |
| CSc1nc2cc(Cl)c(Oc3cccc(Cl)c3Cl)cc2[nH]1 [TRICLABENDAZOLE] | -1.39 |
| O=C1CCc2ccc(OCCCCN3CCN(c4cccc(Cl)c4Cl)CC3)cc2N1 [ARIPIPRAZOLE] | -1.84 |

same assay, conditions: compound screen of the NIH Clinical Collection, sheet raw data NCC-003; compounds ranked by Z-score

| SMILES | Z-SCORE |
| --- | --- |
| CCOC(=O)N1CCC(=C2c3ccc(Cl)cc3CCc3cccnc32)CC1 [LORATADINE] | 0.21 |
| C[C@]12CCC(=O)C[C@@H]1CC[C@@H]1[C@@H]2CC[C@@]2(C)[C@H]1CC[C@]2(C)O [Mestanolone] | 1.19 |
| CN(C)CCN(Cc1ccccc1)c1ccccn1 [TRIPELENNAMINE HYDROCHLORIDE] | 0.58 |
| O=C1c2cccc3c2[C@H](CCC3)CN1[C@@H]1CN2CCC1CC2 [PALONOSETRON HCl] | 0.77 |
| C[C@H]1CCC[C@H](O)CCCCCc2cc(O)cc(O)c2C(=O)O1 [ZERANOL] | -0.91 |
| CCS(=O)(=O)CCn1c([N+](=O)[O-])cnc1C [TINIDAZOLE] | -0.51 |
| CCCN1C[C@H](CSC)C[C@@H]2c3cccc4[nH]cc(c34)C[C@H]21 [PERGOLIDE MESYLATE] | -0.4 |
| CC[C@@]1(O)C(=O)OCc2c1cc1n(c2=O)Cc2cc3c(CN(C)C)c(O)ccc3nc2-1 [Topotecan HCl, reference compound] | 7.97 |
| CN1CCC(=C2c3ccccc3C=Cc3ccccc32)CC1 [Cyproheptadine hydrochloride] | 0.2 |
| N=C(N)NC(=O)c1nc(Cl)c(N)nc1N | 0.85 |
| CN(C)CCC=C1c2ccccc2COc2ccccc21 [Doxepin] | 2.16 |
| CC(Oc1c(Cl)cccc1Cl)C1=NCCN1 (stereo not drawn) [LOFEXIDINE HCl] | -0.17 |
| CCCCCCCCCCC[C@@H](C[C@@H]1OC(=O)[C@H]1CCCCCC)OC(=O)[C@H](CC(C)C)NC=O [ORLISTAT] | 0.19 |
| COc1cc(C)nc(-n2nc(C)cc2OC)n1 [MEPIRIZOLE] | 0.59 |
| COc1cc(C)c(Cc2cnc(N)nc2N)cc1OC [ORMETOPRIM] | 1.63 |
| O=C(c1ccccc1)c1ccc2n1CCC2C(=O)O (stereo not drawn) [Ketorolac tromethamine] | -0.4 |
| CCN(CC)C(=S)SSC(=S)N(CC)CC | -0.22 |
| OC[C@H]1O[C@@H](n2cnc3c(N[C@H]4CCC[C@@H]4O)ncnc32)[C@H](O)[C@@H]1O | -0.71 |
| CC(=O)OCC(=O)NCCCOc1cccc(CN2CCCCC2)c1 [ROXATIDINE ACETATE HCl] | -0.59 |

| SMILES | Z-SCORE |
| --- | --- |
| Nc1nc2ccc(OC(F)(F)F)cc2s1 [Riluzole] | -0.53 |
| COc1cc(C(=O)NC2CCCNC2)cc(OC)c1OC (stereo not drawn) [TROXIPIDE] | -0.33 |
| OC[C@H]1O[C@@H](Oc2cc(O)cc(/C=C/c3ccc(O)cc3)c2)[C@H](O)[C@@H](O)[C@@H]1O [PICEID] | 0.85 |
| C[C@]12CC[C@@H]3c4ccc(O)cc4CC[C@H]3[C@@H]1CC[C@@H]2O [BETA-ESTRADIOL] | 0.81 |
| O=C1N(c2ccccc2)c2ccccc2C1(Cc1ccncc1)Cc1ccncc1 | -0.78 |
| O=c1[nH]cnc2c1ncn2[C@H]1CC[C@@H](CO)O1 [2',3'-DIDEOXYINOSINE] | -0.13 |
| Cl.Cn1c(NCCN(CCO)CCCc2ccc([N+](=O)[O-])cc2)cc(=O)n(C)c1=O [NIFEKALANT HCl] | 1.92 |
| CC(=O)OCC(CCn1cnc2cnc(N)nc21)COC(C)=O [FAMCICLOVIR] | 1.05 |
| Cl.Nc1c2c(nc3c1CCC3)CCCC2 | -0.08 |
| Cc1cc2c(s1)Nc1ccccc1N=C2N1CCN(C)CC1 [OLANZAPINE] | -0.89 |
| NC1=NC(=O)C(c2ccccc2)O1 (stereo not drawn) [Pemoline] | -0.71 |
| COc1ccc(-c2cc(=O)c3c(OC)c(OC)c(OC)c(OC)c3o2)cc1OC [Nobiletin] | -0.05 |
| O=C(NCCO[N+](=O)[O-])c1cccnc1 [NICORANDIL] | -0.09 |
| CNC1CC(c2ccc(Cl)c(Cl)c2)c2ccccc21 (stereo not drawn) [Indatraline] | 0.28 |
| CN1CC(=O)N2[C@H](c3ccc4c(c3)OCO4)c3[nH]c4ccccc4c3C[C@@H]2C1=O | 0.97 |
| CC(C)CC(N(C)C)C1(c2ccc(Cl)cc2)CCC1 (stereo not drawn) [Sibutramine] | -0.34 |
| COc1ccc(C(=O)NCc2ccc(OCCN(C)C)cc2)cc1OC.Cl [ITOPRIDE HCl] | 1.68 |
| C[C@]12CCC(=O)C=C1CC[C@@H]1[C@@H]2C(=O)C[C@@]2(C)[C@H]1CC[C@]2(O)C(=O)CO [CORTISONE] | 0.26 |
| CCN1CCC[C@H]1CNC(=O)c1c(O)c(Cl)cc(Cl)c1OC [Raclopride] | -0.81 |

same assay, conditions: compounds at 10 μM, 24 h; PC12 split TEV assay cells co-cultured with Nrg1-expressing PC12 cells; analysed with cellHTS2

| SMILES | Z-SCORE |
| --- | --- |
| CN(C)CCOC(c1ccc(Cl)cc1)c1ccccn1 (stereo not drawn) [Carbinoxamine Maleate, reference compound] | -0.31 |
| NCCc1ccc(O)c(O)c1 [Intropin, reference compound] | 0.13 |
| CCOC(=O)[C@H](CCc1ccccc1)N[C@@H](C)C(=O)N1Cc2ccccc2C[C@H]1C(=O)O [Quinapril hydrochloride, reference compound] | -1.66 |
| CN(C)C(=O)C(CCN1CCC(O)(c2ccc(Cl)cc2)CC1)(c1ccccc1)c1ccccc1 [Imodium, reference compound] | -0.18 |
| CC[C@@]1(O)C(=O)OCc2c1cc1n(c2=O)Cc2cc3c(CN(C)C)c(O)ccc3nc2-1 [Topotecan HCl, reference compound] | 7.97 |
| CCOC(=O)[C@H](CCc1ccccc1)N[C@@H](C)C(=O)N1[C@H](C(=O)O)C[C@@H]2CCC[C@@H]21 [reference compound] | 4.3 |
| C[C@@](Cc1ccc(O)c(O)c1)(NN)C(=O)O [CARBIDOPA, reference compound] | -1.58 |
| CCCNC(C)C(=O)Nc1ccccc1C (stereo not drawn) [PRILOCAINE HYDROCHLORIDE, reference compound] | 0.68 |
| Nc1nc(=O)c2nc(CNc3ccc(C(=O)N[C@@H](CCC(=O)O)C(=O)O)cc3)cnc2[nH]1 [Folic acid, reference compound] | 0 |
| CC1=C(CC(=O)O)c2cc(F)ccc2/C1=C\c1ccc([S+](C)[O-])cc1 (stereo not drawn) [Sulindac, reference compound] | 1.51 |
| O=C(O)CCCc1ccc(N(CCCl)CCCl)cc1 [CHLORAMBUCIL, reference compound] | 0.14 |
| CC(C)(C(=O)O)c1ccc(C(O)CCCN2CCC(C(O)(c3ccccc3)c3ccccc3)CC2)cc1 (stereo not drawn) [Allegra, reference compound] | -0.84 |
| CC(=O)NS(=O)(=O)c1ccc(N)cc1 [Sulfacetamide, reference compound] | 0.29 |
| CC1(C)S[C@@H]2[C@H](NC(=O)Cc3ccccc3)C(=O)N2[C@H]1C(=O)O [Pfizerpen, reference compound] | -0.19 |
| Nc1ncn([C@@H]2O[C@H](CO)[C@@H](O)[C@H]2O)c(=O)n1 [5-Azacytidine, reference compound] | flagged |
| N[C@@H](Cc1cc(I)c(Oc2cc(I)c(O)c(I)c2)c(I)c1)C(=O)O [L-THYROXINE, reference compound] | -0.07 |
| O=C1CC[C@@]2(O)[C@H]3Cc4ccc(O)c5c4[C@@]2(CCN3CC2CC2)[C@H]1O5 [NALTREXONE HYDROCHLORIDE, reference compound] | 0.59 |
| COc1cc2nc(N3CCN(C(=O)C4COc5ccccc5O4)CC3)nc(N)c2cc1OC (stereo not drawn) [Doxazosin, reference compound] | 0.51 |
| CSc1ccc2c(c1)N(CCC1CCCCN1C)c1ccccc1S2 (stereo not drawn) [THIORIDAZINE HYDROCHLORIDE, reference compound] | flagged |
| CC(C)Cc1ccc(C(C)C(=O)O)cc1 (stereo not drawn) [IBUPROFEN, reference compound] | 0.27 |
| CCN1CCN(C(=O)N[C@@H](C(=O)N[C@@H]2C(=O)N3[C@@H]2SC(C)(C)[C@@H]3C(=O)O)c2ccccc2)C(=O)C1=O [PIPERACILLIN SODIUM SALT, reference compound] | 0.05 |
| COc1cccc2c1C(=O)c1c(O)c3c(c(O)c1C2=O)C[C@@](O)(C(C)=O)C[C@@H]3O[C@H]1C[C@H](N)[C@H](O)[C@H](C)O1 [DAUNORUBICIN HYDROCHLORIDE, reference compound] | flagged |
| Nc1nc(F)nc2c1ncn2[C@@H]1O[C@H](CO)[C@@H](O)[C@@H]1O [FLUDARABINE, reference compound] | 0.7 |
| N[C@H](Cc1cc(I)c(Oc2ccc(O)c(I)c2)c(I)c1)C(=O)O [NSC46046, reference compound] | -1.87 |
| CC(CN1c2ccccc2Sc2ccccc21)N(C)C (stereo not drawn) [Phenergan, reference compound] | 0.41 |
| CN1CCN(C(=O)O[C@H]2c3nccnc3C(=O)N2c2ccc(Cl)cn2)CC1 [Eszopiclone, reference compound] | 0.38 |
| CCCCC(=O)O[C@]1(C(=O)CO)CC[C@H]2[C@@H]3CCC4=CC(=O)CC[C@]4(C)[C@H]3[C@@H](O)C[C@@]21C [Westcort, reference compound] | -0.71 |
| CC(C)[N+]1(C)[C@@H]2CC[C@H]1C[C@@H](OC(=O)C(CO)c1ccccc1)C2.O.[Br-] (stereo partly drawn) [IPRATROPIUM BROMIDE MONOHYDRATE, reference compound] | 0.31 |
